From patent US12077503B2, “Substituted cyclic amides and their use as herbicides” (FMC CORPORATION, priority 2015, dated 2024)

Legend:
Type in all cases: in vivo
[1] = test system: barnyardgrass (Echinochloa crus-galli); experiment: Test G Pre-Emergence Protocol; details: Echinochloa crus-galli, pre-emergence, 312 h, evaluated after 13 days; for pest or weed control at 15.625 g/ha: 15.625 g ai/ha, read-out: Barnyard grass damage rating (100=total damage to plant; 0=no damage to plant); for pest or weed control at 62.5 g/ha: 62.5 g ai/ha, 100=total damage to plant, 0=no damage to plant, read-out: plant damage rating, Barnyardgrass; for pest or weed control at 250 g/ha: 250 g ai/ha, read-out: Barnyardgrass damage rating (100=total damage to plant; 0=no damage to plant)
Experimental: (§1) Seeds of corn (Zea mays), giant foxtail (Setaria faberi), barnyardgrass (Echinochloa crus-galli), ivy-leaved morning glory (Ipomoea hederacea), redroot pigweed (Amaranthus retroflexus) and velvetleaf (Abutilon theophrasti) were sown in standard soil in pots. After cultivation for one day under controlled conditions in a glasshouse (at 24/16° C., day/night; 14 hours light; 65% humidity), the plants were sprayed with an aqueous spray solution derived from the formulation of the technical active ingredient in acetone/water (50:50) solution containing 0.5% Tween 20 (polyoxyethylene sorbitan monolaurate, CAS RN 9005-64-5) to give a final dose of 15.625, 62.5 or 250 g/ha of test compound.
(§2) The test plants were then grown on under controlled conditions in a glasshouse (at 24/16° C., day/night; 14 hours light; 65% humidity) and watered twice daily. After 13 days the test was evaluated (100=total damage to plant; 0=no damage to plant). A dash (-) means no test result.

[2] = test system: corn (Zea mays); experiment: Test G Pre-Emergence Protocol; details: Zea mays, pre-emergence, 312 h, evaluated after 13 days; for plant injury at 15.625 g/ha: 15.625 g ai/ha; for plant injury at 15.625 g/ha / plant injury at 250 g/ha: read-out: Corn damage rating (100=total damage to plant; 0=no damage to plant); for plant injury at 62.5 g/ha: 62.5 g ai/ha, 100=total damage to plant, 0=no damage to plant, read-out: plant damage rating, Corn; for plant injury at 250 g/ha: 250 g ai/ha
Experimental: as §1, §2

[3] = test system: giant foxtail (Setaria faberi); experiment: Test G Pre-Emergence Protocol; details: Setaria faberi, pre-emergence, 312 h, evaluated after 13 days; for pest or weed control at 15.625 g/ha: 15.625 g ai/ha; for pest or weed control at 15.625 g/ha / pest or weed control at 250 g/ha: read-out: Foxtail, Giant damage rating (100=total damage to plant; 0=no damage to plant); for pest or weed control at 62.5 g/ha: 62.5 g ai/ha, 100=total damage to plant, 0=no damage to plant, read-out: plant damage rating, Foxtail, Giant; for pest or weed control at 250 g/ha: 250 g ai/ha
Experimental: as §1, §2

[4] = test system: ivy-leaved morning glory (Ipomoea hederacea); experiment: Test G Pre-Emergence Protocol; details: Ipomoea, pre-emergence, 312 h, evaluated after 13 days; for pest or weed control at 15.625 g/ha: 15.625 g ai/ha, read-out: Morning-glory, Ivy-leaved damage rating (100=total damage to plant; 0=no damage to plant); for pest or weed control at 62.5 g/ha: 62.5 g ai/ha, 100=total damage to plant, 0=no damage to plant, read-out: plant damage rating, Morningglory, Ivy-leaved; for pest or weed control at 250 g/ha: 250 g ai/ha, read-out: Morningglory, Ivy-leaved damage rating (100=total damage to plant; 0=no damage to plant)
Experimental: as §1, §2

[5] = test system: redroot pigweed (Amaranthus retroflexus); experiment: Test G Pre-Emergence Protocol; details: Amaranthus retroflexus, pre-emergence, 312 h, evaluated after 13 days; for pest or weed control at 15.625 g/ha: 15.625 g ai/ha; for pest or weed control at 15.625 g/ha / pest or weed control at 250 g/ha: read-out: Pigweed, Redroot damage rating (100=total damage to plant; 0=no damage to plant); for pest or weed control at 62.5 g/ha: 62.5 g ai/ha, 100=total damage to plant, 0=no damage to plant, read-out: plant damage rating, Pigweed, Redroot; for pest or weed control at 250 g/ha: 250 g ai/ha
Experimental: as §1, §2

[6] = test system: velvetleaf (Abutilon theophrasti); experiment: Test G Pre-Emergence Protocol; details: Abutilon theophrasti, pre-emergence, 312 h, evaluated after 13 days; for pest or weed control at 15.625 g/ha: 15.625 g ai/ha; for pest or weed control at 15.625 g/ha / pest or weed control at 250 g/ha: read-out: Velvetleaf damage rating (100=total damage to plant; 0=no damage to plant); for pest or weed control at 62.5 g/ha: 62.5 g ai/ha, 100=total damage to plant, 0=no damage to plant, read-out: plant damage rating, Velvetleaf; for pest or weed control at 250 g/ha: 250 g ai/ha
Experimental: as §1, §2

[7] = test system: barnyardgrass (Echinochloa crus-galli); experiment: Test G Post-Emergence Protocol; details: Echinochloa crus-galli, post-emergence, 312 h; for pest or weed control at 15.625 g/ha: 15.625 g ai/ha, evaluated after 13 days (100=total damage to plant; 0=no damage to plant), read-out: Barnyardgrass damage rating; for pest or weed control at 62.5 g/ha: 62.5 g ai/ha, read-out: Barnyardgrass damage rating (100=total damage to plant; 0=no damage to plant); for pest or weed control at 62.5 g/ha / pest or weed control at 250 g/ha: evaluated after 13 days; for pest or weed control at 250 g/ha: 250 g ai/ha, read-out: damage to plant, Barnyardgrass (100=total damage to plant; 0=no damage to plant)
Experimental: as §1, with “8 days” for “one day”
as §2

[8] = test system: corn (Zea mays); experiment: Test G Post-Emergence Protocol; details: Zea mays, post-emergence, 312 h; for plant injury at 15.625 g/ha: 15.625 g ai/ha, evaluated after 13 days (100=total damage to plant; 0=no damage to plant), read-out: Corn damage rating; for plant injury at 62.5 g/ha: 62.5 g ai/ha, read-out: Corn damage rating (100=total damage to plant; 0=no damage to plant); for plant injury at 62.5 g/ha / plant injury at 250 g/ha: evaluated after 13 days; for plant injury at 250 g/ha: 250 g ai/ha, read-out: damage to plant, Corn (100=total damage to plant; 0=no damage to plant)
Experimental: as §1, with “8 days” for “one day”
as §2

[9] = test system: giant foxtail (Setaria faberi); experiment: Test G Post-Emergence Protocol; details: Setaria faberi, post-emergence, 312 h; for pest or weed control at 15.625 g/ha: 15.625 g ai/ha, evaluated after 13 days (100=total damage to plant; 0=no damage to plant), read-out: Foxtail, Giant damage rating; for pest or weed control at 62.5 g/ha: 62.5 g ai/ha, read-out: Foxtail, Giant damage rating (100=total damage to plant; 0=no damage to plant); for pest or weed control at 62.5 g/ha / pest or weed control at 250 g/ha: evaluated after 13 days; for pest or weed control at 250 g/ha: 250 g ai/ha, read-out: damage to plant, Foxtail, Giant (100=total damage to plant; 0=no damage to plant)
Experimental: as §1, with “8 days” for “one day”
as §2

[10] = test system: ivy-leaved morning glory (Ipomoea hederacea); experiment: Test G Post-Emergence Protocol; details: Ipomoea, post-emergence, 312 h; for pest or weed control at 15.625 g/ha: 15.625 g ai/ha, evaluated after 13 days (100=total damage to plant; 0=no damage to plant), read-out: Morningglory, Ivy-leaved damage rating; for pest or weed control at 62.5 g/ha: 62.5 g ai/ha, read-out: Morningglory, Ivy-leaved damage rating (100=total damage to plant; 0=no damage to plant); for pest or weed control at 62.5 g/ha / pest or weed control at 250 g/ha: evaluated after 13 days; for pest or weed control at 250 g/ha: 250 g ai/ha, read-out: damage to plant, Morningglory, Ivy-leaved (100=total damage to plant; 0=no damage to plant)
Experimental: as §1, with “8 days” for “one day”
as §2

[11] = test system: redroot pigweed (Amaranthus retroflexus); experiment: Test G Post-Emergence Protocol; details: Amaranthus retroflexus, post-emergence, 312 h; for pest or weed control at 15.625 g/ha: 15.625 g ai/ha, evaluated after 13 days (100=total damage to plant; 0=no damage to plant), read-out: Pigweed, Redroot damage rating; for pest or weed control at 62.5 g/ha: 62.5 g ai/ha, read-out: Pigweed, Redroot damage rating (100=total damage to plant; 0=no damage to plant); for pest or weed control at 62.5 g/ha / pest or weed control at 250 g/ha: evaluated after 13 days; for pest or weed control at 250 g/ha: 250 g ai/ha, read-out: damage to plant, Pigweed, Redroot (100=total damage to plant; 0=no damage to plant)
Experimental: as §1, with “8 days” for “one day”
as §2

[12] = test system: velvetleaf (Abutilon theophrasti); experiment: Test G Post-Emergence Protocol; details: Abutilon theophrasti, post-emergence, 312 h; for pest or weed control at 15.625 g/ha: 15.625 g ai/ha, evaluated after 13 days (100=total damage to plant; 0=no damage to plant), read-out: Velvetleaf damage rating; for pest or weed control at 62.5 g/ha: 62.5 g ai/ha, read-out: Velvetleaf damage rating (100=total damage to plant; 0=no damage to plant); for pest or weed control at 62.5 g/ha / pest or weed control at 250 g/ha: evaluated after 13 days; for pest or weed control at 250 g/ha: 250 g ai/ha, read-out: damage to plant, Velvetleaf (100=total damage to plant; 0=no damage to plant)
Experimental: as §1, with “8 days” for “one day”
as §2

Row | Structure (SMILES) | pest or weed control at 15.625 g/ha [1] [%] | pest or weed control at 62.5 g/ha [1] [%] | pest or weed control at 250 g/ha [1] [%] | plant injury at 15.625 g/ha [2] [%] | plant injury at 62.5 g/ha [2] [%] | plant injury at 250 g/ha [2] [%] | pest or weed control at 15.625 g/ha [3] [%] | pest or weed control at 62.5 g/ha [3] [%] | pest or weed control at 250 g/ha [3] [%] | pest or weed control at 15.625 g/ha [4] [%] | pest or weed control at 62.5 g/ha [4] [%] | pest or weed control at 250 g/ha [4] [%] | pest or weed control at 15.625 g/ha [5] [%] | pest or weed control at 62.5 g/ha [5] [%] | pest or weed control at 250 g/ha [5] [%] | pest or weed control at 15.625 g/ha [6] [%] | pest or weed control at 62.5 g/ha [6] [%] | pest or weed control at 250 g/ha [6] [%] | pest or weed control at 15.625 g/ha [7] [%] | pest or weed control at 62.5 g/ha [7] [%] | other results
1 | C[C@@]1(C(=O)Nc2cccc(F)c2F)C(=O)NC[C@@H]1c1ccc(C(F)(F)F)cc1 (racemic) [Compound 1405] | 0 | 0 | 0 | 0 | 0 | 0 | 0 | 0 | 0 | 0 | 0 | 0 | 0 | 0 | 0 | 0 | 0 | 0 | 0 | 0 | pest or weed control at 250 g/ha [7]: 0%; plant injury at 15.625 g/ha [8]: 0%; plant injury at 62.5 g/ha [8]: 0%; plant injury at 250 g/ha [8]: 0%; pest or weed control at 15.625 g/ha [9]: 0%; pest or weed control at 62.5 g/ha [9]: 0%; pest or weed control at 250 g/ha [9]: 0%; pest or weed control at 15.625 g/ha [10]: 0%; pest or weed control at 62.5 g/ha [10]: 0%; pest or weed control at 250 g/ha [10]: 0%; pest or weed control at 15.625 g/ha [11]: 0%; pest or weed control at 62.5 g/ha [11]: 0%; pest or weed control at 250 g/ha [11]: 0%; pest or weed control at 15.625 g/ha [12]: 0%; pest or weed control at 62.5 g/ha [12]: 0%; pest or weed control at 250 g/ha [12]: 0%
2 | CN1C[C@H](c2ccc(C(C)(C)C#N)cc2)[C@@H](C(=O)Nc2ccccc2F)C1=O (racemic) [Compound 1408] | 0 | 0 | 20 | 0 | 0 | 10 | 0 | 20 | 70 | 0 | 0 | 0 | 0 | 0 | 10 | 0 | 0 | 0 | 0 | 0 | pest or weed control at 250 g/ha [7]: 40%; plant injury at 15.625 g/ha [8]: 0%; plant injury at 62.5 g/ha [8]: 0%; plant injury at 250 g/ha [8]: 20%; pest or weed control at 15.625 g/ha [9]: 0%; pest or weed control at 62.5 g/ha [9]: 0%; pest or weed control at 250 g/ha [9]: 60%; pest or weed control at 15.625 g/ha [10]: 0%; pest or weed control at 62.5 g/ha [10]: 0%; pest or weed control at 250 g/ha [10]: 20%; pest or weed control at 15.625 g/ha [11]: 0%; pest or weed control at 62.5 g/ha [11]: 0%; pest or weed control at 250 g/ha [11]: 0%; pest or weed control at 15.625 g/ha [12]: 0%; pest or weed control at 62.5 g/ha [12]: 0%; pest or weed control at 250 g/ha [12]: 10%
